Reference: patent US9447136B2, “Semisynthetic derivatives of Nystatin A1” (BLIRT S.A., priority 2012, dated 2016)
Read-outs that look alike come from different tables or passages of the source.

Columns and labels:
Human erythrocytes = assay: Hemotoxicity (hemolytic activity)
Description: The hemotoxicity determination were carried out by the serial dilutions method, according to the procedure described earlier (Ślisz, M., et al., E., J Antibiot 57: 669-678 (2004)). Human erythrocytes were suspensed in the solution of saline to obtain a cell density of suspension 2×10^7/ml. Suitable amounts of diluted solutions of compounds were added to the cell suspension in tubes and were incubated at 37° C. for 30 minutes and then centrifuged (1700×g, 10 min, 4° C.). The concentration of hemoglobin in supernatant after centrifugation of erythrocytes suspension were determined by measuring the absorbance at wavelength λ=540 nm (A540). The maximum level of hemolysis was obtained after incubation of cells suspension in the presence of 0.1% Tritone X-100 (control sample). […] From these graphs, the EH50 values were read which are the interpolated concentrations of compound, for which the A540 value is exactly 50% of the A540 value measured for the control sample.

[1] = tested on: Saccharomyces cerevisiae ATCC 9763; assay: Antifungal activity in vitro, serial dilution in RPMI 1640; format: cell-based; details: Table 2A; RPMI 1640, pH 7.0; A531 at most 20% of control
Description: (§1) For the determination of antifungal activity in vitro we used method of serial dilution in buffered medium RPMI 1640, pH 7.0, in a 96-wells microplates, according to the standard procedure (National Committee for Clinical Laboratory Standards. Reference method for broth dilution antifungal susceptibility testing of yeast, approved standard, 2nd ed. M27-A2 vol. 22 Wayne, Pa., 2002). The optical density of cells suspension was measured using a microplates reader (Victor^3, Perkin-Elmer) at the wavelength λ=531 nm (A531). On the basis of obtained results the diagrams of relation between A531 values and concentration of examined compound were made. From these graphs, the IC50 values were read, which were the interpolated concentrations of a tested compound, at which the A531 value was exactly 50% of the A531 value for the control sample. Moreover, MIC values, that are the lowest concentration of tested compound at which the A531 value were at most 20% of the A531 value measured for the control sample.

[2] = tested on: Candida albicans ATCC 10231; assay: as above; format: cell-based; details: Table 2A, RPMI 1640, pH 7.0; for Antifungal activity Candida albicans ATCC 10231 IC50: A531 50% of control; for Antifungal activity Candida albicans ATCC 10231 MIC: A531 at most 20% of control
Description: as §1

[3] = tested on: Candida tropicalis KKP 334; assay: as above; format: cell-based; details: Table 2A; RPMI 1640, pH 7.0
Description: as §1

Candida krusei DSM 6128 = assay: as above; format: cell-based; details: Table 2A; RPMI 1640, pH 7.0
Description: as §1

[4] = tested on: Candida glabrata DSM 11226; assay: as above; format: cell-based; details: Table 2A; RPMI 1640, pH 7.0
Description: as §1

[5] = human erythrocytes, concentration causing 10% of hemolysis

SMILES	Hemotoxicity BEH50 (Human erythrocytes; human erythrocytes, 37° C., 30 minutes, concentration causing 50% hemolysis, maximum concentration 300 μg/ml)	% of hemolysis at the concentration 300 μg ml^−1 (Human erythrocytes; human erythrocytes, 300 μg ml^−1)	EH10 (Human erythrocytes; [5])	Antifungal activity Saccharomyces cerevisiae ATCC 9763 MIC [1]	Antifungal activity Candida albicans ATCC 10231 IC50 [2]	Antifungal activity Candida albicans ATCC 10231 MIC [2]	Antifungal activity Candida tropicalis KKP 334 MIC [3]	Antifungal activity Candida krusei DSM 6128 MIC (Candida krusei DSM 6128)	Antifungal activity Candida glabrata DSM 11226 MIC [4]	% of hemolysis at the concentration 300 μg ml^−1 (Human erythrocytes)	EH10 (Human erythrocytes)
C[C@@H]1[C@H](O)[C@@H](C)/C=C/C=C/CC/C=C/C=C/C=C/C=C/[C@H](O[C@@H]2O[C@H](C)[C@@H](O)[C@H](NC(=O)[C@@H](N)Cc3ccc([N+](=O)[O-])cc3)[C@@H]2O)C[C@@H]2O[C@](O)(C[C@@H](O)C[C@@H](O)[C@H](O)CC[C@@H](O)C[C@@H](O)CC(=O)O[C@H]1C)C[C@H](O)[C@H]2C(=O)O [Compound N40, N-L-(4-nitrophenyl)alanylnystatin A1]	>300 µg/mL	7.45%	>300 µg/mL	8 µg/mL	5.56 µg/mL	8 µg/mL	8 µg/mL	16 µg/mL	16 µg/mL	–	–
CCCN(CC1(O)OCC(O)C(O)C1O)C1C(O)C(C)OC(OC2C=CC=CC=CC=CCCC=CC=CC(C)C(O)C(C)C(C)OC(=O)CC(O)CC(O)CC(O)CCC(O)C(O)CC3(O)CC(O)C(C(=O)O)C(C2)O3)C1O (centres unmarked) [Compound N27, N-fructosyl-N-n-propylnystatin A1]	–	–	–	–	–	–	–	–	–	7.34%	>300 µg/mL
CNC(C)(C)C(=O)NC1C(O)C(C)OC(O[C@H]2/C=C/C=C/C=C/C=C/CC/C=C/C=C/[C@H](C)[C@@H](O)[C@@H](C)[C@H](C)OC(=O)C[C@H](O)C[C@H](O)C[C@H](O)CC[C@@H](O)[C@H](O)CC3(O)C[C@H](O)[C@@H](C(=O)O)[C@H](C2)O3)C1O (some centres unmarked) [Compound N43, N-[2-(N-methylamino)-2-methylpropan]nystatin A1]	–	–	283.84 µg/mL	8 µg/mL	5.46 µg/mL	8 µg/mL	8 µg/mL	16 µg/mL	8 µg/mL	–	–
Cc1cccc(C)c1N1C(=O)CC(NC2C(O)C(C)OC(O[C@H]3/C=C/C=C/C=C/C=C/CC/C=C/C=C/[C@H](C)[C@@H](O)[C@@H](C)[C@H](C)OC(=O)C[C@H](O)C[C@H](O)C[C@H](O)CC[C@@H](O)[C@H](O)CC4(O)C[C@H](O)[C@@H](C(=O)O)[C@H](C3)O4)C2O)C1=O (some centres unmarked) [Compound N4, N—(N′-2,6-dimethyl-phenylsuccinimidyl)nystatin A1]	–	–	–	8 µg/mL	6.32 µg/mL	8 µg/mL	8 µg/mL	16 µg/mL	16 µg/mL	–	–
C[C@@H]1[C@H](O)[C@@H](C)/C=C/C=C/CC/C=C/C=C/C=C/C=C/[C@H](O[C@@H]2O[C@H](C)[C@@H](O)[C@H](NC(=O)[C@H](N)COC(C)(C)C)[C@@H]2O)C[C@@H]2O[C@](O)(C[C@@H](O)C[C@@H](O)[C@H](O)CC[C@@H](O)C[C@@H](O)CC(=O)O[C@H]1C)C[C@H](O)[C@H]2C(=O)O [Compound N38, N-D-(O-tert-butyl)serylnystatin A1]	–	–	–	8 µg/mL	5.95 µg/mL	8 µg/mL	8 µg/mL	16 µg/mL	16 µg/mL	–	–
CC1C=CC=CCCC=CC=CC=CC=CC(OC2OC(C)C(O)C(NC(=O)C(N)COC(C)(C)C)C2O)CC2OC(O)(CC(O)CC(O)C(O)CCC(O)CC(O)CC(=O)OC(C)C(C)C1O)CC(O)C2C(=O)O [Compound N36, N-L-(O-tert-butyl)serylnystatin A1]	–	–	–	–	–	–	–	–	–	8.24%	>300 µg/mL
